Reference: patent US10588317B2, “Isoxazoline-substituted benzamides and analogues as insecticides” (priority 2015, dated 2020)

What was measured:
Assay type in all cases: in vivo
Tetranychus urticae = Tetranychus urticae (two-spotted spider mite): feeding/contact activity; details: 192 h, application rate 200 ppm, mixed population (mobile stages), 8 days after infestation, read-out: mortality
Description: Bean leaf discs on agar in 24-well microtiter plates were sprayed with aqueous test solutions prepared from 10'000 ppm DMSO stock solutions. After drying the leaf discs were infested with a mite population of mixed ages. The samples were assessed for mortality on mixed population (mobile stages) 8 days after infestation.

Thrips tabaci = Thrips tabaci (onion thrips): feeding/contact activity; details: 144 h, application rate 200 ppm, Thrips population of mixed ages, 6 days after infestation, read-out: mortality
Description: Sunflower leaf discs were placed on agar in 24-well microtiter plates and sprayed with aqueous test solutions prepared from 10'000 ppm DMSO stock solutions. After drying the leaf discs were infested with a Thrips population of mixed ages. The samples were assessed for mortality 6 days after infestation.

Spodoptera littoralis [1] = assay: Spodoptera littoralis (Egyptian cotton leaf worm), uptake by lettuce roots from agar; details: 144 h, read-out: effect in at least one of the three categories (mortality, anti-feeding, or growth inhibition);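 also: 12.5 ppm test rate in agar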
Summary of the method: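 Systemic test: Spodoptera eggs placed on lettuce leaves from seedlings raised 7 days on agar containing the compound (diluted from 10'000 ppm DMSO stock). Six days after infestation, larvae scored against untreated controls for mortality, feeding deterrence and growth inhibition.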

Spodoptera littoralis [2] = assay: Spodoptera littoralis (Egyptian cotton leaf worm), sprayed cotton leaf discs; details: foliar, 72 h, application rate 200 ppm, L1 larvae, 3 days after infestation, read-out: control (mortality, anti-feeding effect, growth inhibition)
Summary of the method: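 Five first-instar larvae placed on dried cotton leaf discs (on agar) previously sprayed with aqueous dilutions of 10'000 ppm DMSO stocks. Scored at 3 days against untreated discs for mortality, feeding inhibition and growth inhibition; any category above untreated counts as control.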

Diabrotica balteata = Diabrotica balteata (corn root worm), sprayed maize sprouts; details: 96 h, application rate 200 ppm, L2 larvae, 4 days after infestation, read-out: effect in at least one of the two categories (mortality or growth inhibition)
Summary of the method: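 Read-out at 4 days post-infestation: mortality and growth inhibition relative to untreated samples. Test solutions (200 ppm, from DMSO stocks) were sprayed onto agar-held maize sprouts, which after drying received 6–10 L2 larvae per well.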

Plutella xylostella = Plutella xylostella (diamond back moth), artificial diet; details: 120 h, application rate 200 ppm, L2 larvae, 5 days after infestation, read-out: effect in at least one of the two categories (mortality or growth inhibition)
Summary of the method: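 L2 larvae (10-15 per well) fed on compound-treated, dried artificial diet; test solutions diluted in water from 10'000 ppm DMSO stocks. Readout 5 days post-infestation as mortality or growth inhibition versus untreated diet, with at least 80% effect at 200 ppm as threshold.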

Euschistus heros = Euschistus heros (neotropical brown stink bug), sprayed soybean leaves; details: 120 h, application rate 200 ppm, N2 nymphs, 5 days after infestation, read-out: effect in at least one of the two categories (mortality or growth inhibition)
Summary of the method: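 Scored 5 days post-infestation versus untreated controls, for both mortality and growth inhibition: N2 nymphs placed on agar-mounted soybean leaves previously sprayed at 200 ppm with aqueous test solutions from DMSO stocks and left to dry.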

Myzus persicae = Myzus persicae (green peach aphid): feeding/contact activity; details: 144 h, application rate 200 ppm, aphid population of mixed ages, 6 days after infestation, read-out: mortality
Description: Sunflower leaf discs were placed onto agar in a 24-well microtiter plate and sprayed with aqueous test solutions prepared from 10'000 ppm DMSO stock solutions. After drying, the leaf discs were infested with an aphid population of mixed ages. The samples were assessed for mortality 6 days after infestation.

C=Cc1cc(C2=NOC(c3cc(Cl)cc(Cl)c3)(C(F)(F)F)C2)ccc1C(=O)NC1CON(S(C)(=O)=O)C1 (stereo not shown) [Compound A65]
≥ 80%: mortality at 200 ppm (Tetranychus urticae) | mortality at 200 ppm (Thrips tabaci) | percent control (mortality, anti-feedant effect or growth inhibition) at 12.5 ppm (Spodoptera littoralis [1]) | mortality at 200 ppm (Spodoptera littoralis [2]) | percent effect (mortality or growth inhibition) at 200 ppm (Diabrotica balteata) | percent effect (mortality or growth inhibition) at 200 ppm (Plutella xylostella) | percent effect (mortality or growth inhibition) at 200 ppm (Euschistus heros) | mortality at 200 ppm (Myzus persicae)

CCS(=O)(=O)N1CC(NC(=O)c2ccc(C3=NO[C@@](c4cc(Cl)c(Cl)c(Cl)c4)(C(F)(F)F)C3)cc2C)CO1 (stereo partly drawn) [Compound A27, N-(2-ethylsulfonylisoxazolidin-4-yl)-2-methyl-4-[(5S)-5-(3,4,5-trichlorophenyl)-5-(trifluoromethyl)-4H-isoxazol-3-yl]benzamide]
≥ 80%: mortality at 200 ppm (Tetranychus urticae) | mortality at 200 ppm (Thrips tabaci) | percent control (mortality, anti-feedant effect or growth inhibition) at 12.5 ppm (Spodoptera littoralis [1]) | mortality at 200 ppm (Spodoptera littoralis [2]) | percent effect (mortality or growth inhibition) at 200 ppm (Diabrotica balteata) | percent effect (mortality or growth inhibition) at 200 ppm (Plutella xylostella) | percent effect (mortality or growth inhibition) at 200 ppm (Euschistus heros) | mortality at 200 ppm (Myzus persicae)
